# According to patent publication US10852311B2, “Additive channels” (Emulate Inc., priority 2016, dated 2020):
# Where a name gives a salt, the structure may show the parent alone. Positions of bridges follow the written chain, without caps; N, C: chain ends. Non-standard residues stand in square brackets, D forms with d. Residues, ends and D or L forms follow the SMILES beside them. hArg = N=C(N)NCCCC[C@H](N)C(=O)O; Mpa = O=C(O)CCS
# Assays:
# platelets [1] = assay: Hu5C8 mediated thrombosis on-chip, FcγRIIa dependence (platelet coverage, fibrin deposition, TAT); type: cell-based, human
# From the text: Recent studies conducted on humanized mice expressing the human Fcγ receptors (FCGR2A) have shown that this receptor plays a role in thrombosis leading to the IC-mediated toxicity^12,16,21. […] In order to investigate if the IC5c8-induced thrombosis that we observed in our vessel-on-chip system also relies on an Fc-mediated mechanism, we used two different tool molecules: IgG2σ and IV.3 (FIG. 25A). The IgG2σ variant of hu5C8 has an engineered Fc region^48 that eliminates affinity for the FcγRIIa, while the monoclonal antibody IV.3 is a blocking antibody binding to FcγRIIa. […]
# Some of the blood samples were treated with IV.3 (1 μg/ml) for 10 minutes to block the FcγRIIa, and then incubated for 20 more minutes with IC5c8. […] We tested 15 donors and all the tested conditions described above were tested in duplicates and analyzed as percentage of platelet coverage based on fluorescence microscopic imaging (FIG. 25B). […]
# Blood from several human donors were aliquoted into groups for the following treatments: controls (PBS), sCD40L, combined hu5C8/sCD40L, combined hu5C8 (IgG2σ)/sCD40L combined, and combined hu5C8/sCD40L/IV.3. Each condition was tested with a minimum of 3 donors to a maximum of 15 donors, and all conditions were tested in duplicates and analyzed for platelet coverage (FIG. 25B), fibrin deposition (FIG. 25C), or increased formation of TAT measured in the eluates (FIG. 25D). […]
# platelets [2] = assay: Vessel-On-Chip blood perfusion, platelet coverage/aggregation by fluorescence imaging; type: cell-based, human
# Procedure: At the start of each experiment, two vials of cells were thawed and expanded for 3 days in EGM-2. Cells were gently detached with 0.05% Trypsin (BD Biosciences, 2-4 minutes incubation at room temperature) and 8×10^6 cells/ml were introduced into the ECM-coated microchannels. After incubating for 30 minutes at 37° C., cell attachment to the bottom surface of the chamber was assessed by microscopy. Then, a second flask of HUVECs was trypsinized and used to seed the upper surface of the microfluidic chamber by introducing the cell suspension, inverting the chip, and incubating at 37° C. for 30 minutes. Each microfluidic chamber was gently flushed with EGM-2 twice in order to remove unbound cells, then chips were incubated overnight at 37° C. The next day, chips were connected to a syringe pump (Chemyx Fusion 200) and perfused with EGM-2 for 3 days (30 μL/hr) to provide continuous supply of fresh media. On day 3, medium was switched to EGM-2 with low serum (1% FBS, no VEGF) to promote cell synchronization overnight. On day 4, chips were used for blood perfusion experiments.
# Citrated human blood (Research Blood Components, Cambridge, Mass.) was used within 4 hours of a blood draw in order to minimize pre-analytical effects on platelet function. Before every experiment, each one of the endothelialized channels (i.e. microchannels having an endothelial cell layer) was inspected via light microscopy. Samples showing any sign of discontinuity in the endothelium were discarded.
# Platelets were labeled with human CD41-PE antibody (10 μL/ml, Invitrogen) directly added to the blood and incubated at room temperature for 5 minutes.
# (§1) A medical grade plastic reservoir was mounted on the chip, then 800 μl of the blood sample was pipetted into the reservoir. The chip was perfused with the blood by withdrawing it at a rate of 60 μl/minute using a syringe pump. The citrated blood was re-calcified 2 minutes after the beginning of each experiment by adding 100 μl/ml of a solution containing 100 mM calcium chloride and 75 mM magnesium chloride to the blood to permit calcium- and magnesium-dependent platelet function and coagulation.
# (§2) Chips perfused with blood samples were immediately imaged via fluorescence microscopy (Olympus IX83, 10X objective UPLFLN10X2, Circa-Flash4.0 CMOS Camera). Each chamber was inspected along its entire length and 5 images (about […]) were captured from the central area of the chamber. Image processing and quantification was performed with an automatic macro compiled in […] and numerical values corresponding to platelet coverage or fibrin florescence were collected and statistically analyzed in Graphpad Prism V7.
# (§3) A percentage of signal coverage (or Platelet coverage) was computed from the binary image as the ratio of bright pixels to the total number of pixels in the image. Image processing and quantification was performed with an automatic macro compiled in ImageJ ire order to ensure unbiased signal measurements. Numerical values corresponding to platelet coverage or fibrin fluorescence (signal intensity) were collected and statistically analyzed in Graphpad Prism V7.
# fibrin = assay: Vessel-On-Chip blood perfusion, fibrin deposition by fluorescent fibrinogen imaging; type: cell-based, human
# Procedure: as §1
# When analyzing the formation of fibrin, 10 μg/ml of fluorescently labeled fibrinogen (Alexa 488, Invitrogen) was also added to the blood. While fluorescent fibrinogen was barely detected as a diffused fluorescence, fibrin deposition on inflamed cells and sparse clots was easily distinguished since fibrin formed filamentous structures produce a signal intensity that is clearly observed above a background threshold.
# as §2, §3
# [3] = system: thrombin anti-thrombin complex (TAT); assay: Thrombin-anti thrombin (TAT) measurement via ELISA in chip effluent; type: cell-based, human; conditions: for TAT increment: Eptifibatide treatment
# Procedure: Thrombin Anti-Thrombin (TAT) levels were analyzed in plasma from blood flowing out of the chip device by removing a sample from the outflow port. Thus TAT levels were evaluated in sample effluents collected from the outflow port of the chip using the Human TAT ELISA Kit (Siemens Healthineers) according to the user manual.
# Blood sampled from the Vessel-On-Chip outflow port was analyzed for thrombin anti-thrombin complex (TAT), a factor released upon activation of the coagulation cascade and one of the biomarkers associated with thrombotic events occurring in patients affected with deep vein thrombosis (DVT) or SLE^45,46. TAT is an accepted clinical biomarker for procoagulation^48,49. An enzyme-linked immunosorbent assay (ELISA) was used to quantify the thrombin anti-thrombin complex (TAT).
# ICAM1 = ICAM1 immunostaining of endothelium on chip; type: cell-based, human; conditions: TNF-α stimulated endothelium compared to the control
# Procedure: In some experiment endothelial cells were stimulate with 50 ng/ml of TNF (Sigma) for 6 hours in order to induce vascular inflammation before blood perfusion.
# re-calcified blood = assay: On-chip anticoagulation of outflowing blood through the anticoagulant port; design: species or system human; conditions: sodium citrate through the anticoagulant port vs chips without anticoagulant port
# From the text: In one embodiment, the surface area of the vascular compartment of a microfluidic chip used herein is greater in comparison to the original lung-on-a-chip design because the original size was too small for optimal blood component interaction with endothelium. As described herein, a 1 mm wide and 200 μm tall chamber provided an increase in size of the vascular surface area exposed to laminar flow, as compared to an exemplary lung-on-chip. An anticoagulant port, referred to by several names, including but not limited to EDTA input, citrate input, etc., was added near the outflow port of the vascular chamber. Thus two ports (anticoagulant port and vascular outflow i.e. outflow) were linked through a microfluidic channel (dimension of 250 um wide by 100 um height) to allow for perfusion of anticoagulant solution during the experiment. In some embodiments, modifications were made in the […] dimension. The outlet of the chip was connected to a pulling syringe pump with a system of tubing and connectors made of medical grade silicon that excludes any metal components or potential causes of platelet activation. […]
# platelets [4] = assay: Platelet activation quality control by p-selectin expression; type: cell-based, human; conditions: control blood upon activation by ADP
# Procedure: To test for a thrombic event, blood was collected from 4 donors, the as blood alone or blood treated with hu5C8 alone (240 μg/mL), sCD40L (10 ng/ml) alone or with combined hu5C8/sCD40L was incubated for 20 minutes at room temperature. Each sample was further incubated for 5 minutes with fluorescent labels for platelets and fibrinogen. As a standard quality control, the control blood was tested for platelet activation using p-selection expression. We confirmed that platelets in control blood were not activated but upon activation by ADP, over 90% of platelet was positive for p-selectin.
# [5] = Eptifibatide 2 ug/ml, endothelium inflamed with TNF-α, n=4
# [6] = Eptifibatide 2 ug/ml, following treatment with sCollagen, n=4
# [7] = Eptifibatide 2 ug/ml, samples treated with TNF-α, n=4
# [8] = TNF-α 50 ng/ml 6 hours on endothelium, or sCollagen 10 μg/ml in blood, vs control blood
# [9] = hu5C8 240 μg/mL, sCD40L 10 ng/ml, 4 donors, 60 μl/minute about 10 minutes, vs untreated blood
molecule,measurement,setting,value
hu5C8 (IgG2σ): IgG2σ variant of hu5C8 with engineered Fc region that eliminates affinity for FcγRIIa,signs of thrombosis in any of the endpoints,platelets [1]; combined with sCD40L (IV.3: combined hu5C8/sCD40L/IV.3),did not show signs of thrombosis
same,hu5C8-mediated thrombosis,"platelets [1]; preformed IC, IV.3 1 μg/ml 10 minutes, 15 donors",suppressed
N=C(N)NCCCC[C@@H]1NC(=O)CCSSC[C@@H](C(N)=O)NC(=O)[C@@H]2CCCN2C(=O)[C@H](Cc2c[nH]c3ccccc23)NC(=O)[C@H](CC(=O)O)NC(=O)CNC1=O [Eptifibatide] ([Mpa][hArg]GDWPC-NH2; disulfide 1-7),platelet aggregation,platelets [2]; [5],significantly inhibited
same,inhibitory effect on platelet aggregation,platelets [2]; [6],comparatively modest
same,platelet adhesion (image analysis),platelets [2]; [7],completely inhibited
same,fibrin clot formation,fibrin; [5],significantly inhibited
same,inhibitory effect on fibrin clot formation,fibrin; [6],comparatively modest
same,fibrin signal (image analysis),fibrin; [7],a significant amount of fibrin signal was still detectable
same,TAT increment,[3]; TNF-α-induced inflammation,did not inhibit
same,TAT increment,[3]; sCollagen treatment,entirely suppressed
TNF-α,areas of platelet coverage,platelets [2]; [8],increased
same,expression of ICAM1 in the endothelium,ICAM1,increased
same,fibrin signal intensity,fibrin; [8],increased
same,levels of TAT,"[3]; plasma from blood flowing out of the chip, FIG. 22B",significantly increased
O=C(O)CC(O)(CC(=O)O)C(=O)O [sodium citrate],state of blood collected from the effluent,re-calcified blood,soluble (not clotted) blood
hu5C8: humanized monoclonal IgG1 antibody against CD40L (anti-CD154),platelet aggregate formation on the endothelium,platelets [2]; [9],no significant treatment-related effects
same,fibrin deposition on the endothelium,fibrin; [9],no significant treatment-related effects
Nc1ncnc2c1ncn2[C@@H]1O[C@H](COP(=O)(O)OP(=O)(O)O)[C@@H](O)[C@H]1O [ADP],platelet positive for p-selectin,platelets [4],over 90%
